Assay results from patent US20150105252A1, “SUBSTITUTED PYRAZOLES AS HERBICIDES” (E I DU PONT DE NEMOURS AND COMPANY, priority 2013, published 2015).

Tests used:
foxtail, giant [1] = assay: Test A preemergence; format: in vivo, Setaria faberii; conditions: preemergence; for Foxtail, Giant plant response rating (0 to 100 scale): 125 g ai/ha, visual injury approx. 10 days after treatment; for Foxtail, Giant plant response rating: 500 g ai/ha, visual injury after approx. 10 days, 0 to 100 scale (0 no effect, 100 complete control)
Summary of the method: (§1)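 After sowing in a sand–loam mix, pots received compound preemergence by directed soil spray, or postemergence once plants reached the one- to two-leaf stage (2–10 cm). Formulation contained surfactant in a non-phytotoxic solvent. Injury was scored visually after ~10 greenhouse days, 0–100 scale.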

pigweed = assay: Test A postemergence; format: in vivo, Amaranthus retroflexus; conditions: Postemergence
Summary of the method: as §1

crabgrass, large = assay: Test A postemergence; format: in vivo, Digitaria sanguinalis
Summary of the method: as §1

wheat [2] = assay: Test A postemergence; format: in vivo, Triticum aestivum; conditions: Postemergence
Summary of the method: as §1

corn [3] = assay: Test A preemergence; format: in vivo, Zea mays; conditions: preemergence; for Corn plant response rating (0 to 100 scale): 125 g ai/ha, visual injury approx. 10 days after treatment; for Corn plant response rating: 500 g ai/ha, visual injury after approx. 10 days, 0 to 100 scale (0 no effect, 100 complete control)
Summary of the method: as §1

velvetleaf = assay: Test A preemergence; format: in vivo, Abutilon theophrasti; conditions: preemergence; for Velvetleaf plant response rating (0 to 100 scale): 125 g ai/ha, visual injury approx. 10 days after treatment; for Velvetleaf plant response rating: 500 g ai/ha, visual injury after approx. 10 days, 0 to 100 scale (0 no effect, 100 complete control)
Summary of the method: as §1

sedge, umbrella = assay: Test B flood; format: in vivo, Cyperus difformis; conditions: 250 g ai/ha, visual rating on 0 to 100 scale (0 no effect, 100 complete control), 13 to 15 days
Summary of the method: (§2)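 At two leaves, seedlings received the test compound via the paddy water, pots having been flooded 3 cm over the soil surface and kept so. Greenhouse-held for 13 to 15 days, then judged by eye against controls on a scale running 0 (no effect) to 100 (complete control).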

oilseed rape = assay: Test C preemergence; format: in vivo, Brassica napus; conditions: preemergence; for Plant response rating, Oilseed Rape: 125 g ai/ha, scale 0 to 100, 0 = no effect, 100 = complete control
Summary of the method: (§3)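 Pre- and postemergence greenhouse screen; vehicle was a non-phytotoxic solvent mix with surfactant. Preemergence: treatment applied right after sowing into loam and sand. Postemergence: treated at 1–4 leaves. Visual rating at 13–15 days, 100 = complete control.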

wheat [4] = assay: Test C preemergence; format: in vivo, Triticum aestivum; conditions: preemergence; for Plant response rating, Wheat: 125 g ai/ha, scale 0 to 100, 0 = no effect, 100 = complete control
Summary of the method: as §3

nutsedge, yellow = assay: Test C preemergence; format: in vivo, Cyperus esculentus; conditions: preemergence; for Plant response rating, Nutsedge, Yellow: 125 g ai/ha, scale 0 to 100, 0 = no effect, 100 = complete control
Summary of the method: as §3

foxtail, giant [5] = assay: Test C preemergence; format: in vivo, Setaria faberii; conditions: preemergence; for Plant response rating, Foxtail, Giant: 125 g ai/ha, scale 0 to 100, 0 = no effect, 100 = complete control
Summary of the method: as §3

morningglory = assay: Test A preemergence; format: in vivo, Ipomoea spp.; conditions: preemergence; for Morningglory plant response rating (0 to 100 scale): 125 g ai/ha, visual injury approx. 10 days after treatment; for Morningglory plant response rating: 500 g ai/ha, visual injury after approx. 10 days, 0 to 100 scale (0 no effect, 100 complete control)
Summary of the method: as §1

ducksalad = assay: Test B flood; format: in vivo, Heteranthera limosa; conditions: 250 g ai/ha, visual rating on 0 to 100 scale (0 no effect, 100 complete control), 13 to 15 days
Summary of the method: as §2

corn [6] = assay: Test C preemergence; format: in vivo, Zea mays; conditions: preemergence; for Plant response rating, Corn: 125 g ai/ha, scale 0 to 100, 0 = no effect, 100 = complete control
Summary of the method: as §3

galium = assay: Test C preemergence; format: in vivo, Galium aparine; conditions: preemergence; for Plant response rating, Galium: 125 g ai/ha, scale 0 to 100, 0 = no effect, 100 = complete control
Summary of the method: as §3

[7] = 125 g ai/ha, 0 to 100 scale, 0 no effect, 100 complete control
[8] = 500 g ai/ha, 0 to 100 scale (0 no effect, 100 complete control)
[9] = Postemergence, 500 g ai/ha, 0 to 100 scale (0 no effect, 100 complete control)
[10] = postemergence, 125 g ai/ha, about 10 days, visual rating on 0 to 100 scale (0 no effect, 100 complete control)
[11] = 31 g ai/ha, visual rating, scale 0 to 100 (0 no effect, 100 complete control), 13 to 15 days
[12] = 62 g ai/ha, scale 0 to 100 (0 no effect, 100 complete control), 13 to 15 days
[13] = 250 g ai/ha, scale 0 to 100, 0 is no effect, 100 is complete control

SMILES | Foxtail, Giant plant response rating (0 to 100 scale) (foxtail, giant [1]) | Foxtail, Giant plant response rating (foxtail, giant [1]) | Pigweed plant response rating (pigweed; [7]) | Pigweed plant response rating (pigweed; [8]) | Crabgrass, Large plant response rating (crabgrass, large; [9]) | Crabgrass, Large plant response rating (crabgrass, large; [10]) | Wheat plant response rating (wheat [2]; [7]) | Wheat plant response rating (wheat [2]; [8]) | Corn plant response rating (0 to 100 scale) (corn [3]) | Corn plant response rating (corn [3]) | Velvetleaf plant response rating (0 to 100 scale) (velvetleaf) | Velvetleaf plant response rating (velvetleaf) | Plant response rating, Sedge, Umbrella (sedge, umbrella) | Oilseed Rape plant response rating (oilseed rape; [11]) | Oilseed Rape plant response rating (oilseed rape; [12]) | Plant response rating, Oilseed Rape (oilseed rape; 13 to 15 days) | Oilseed Rape plant response rating (oilseed rape; [13]) | Wheat plant response rating (wheat [4]; [11]) | Wheat plant response rating (wheat [4]; [12]) | Plant response rating, Wheat (wheat [4]; 13 to 15 days) | further results
CCCNC(=O)c1cc(CCC)n(Cc2cc(C(F)(F)F)nn2C)n1 [Compound 198] | 100 | 90 | 100 | 100 | 100 | 90 | 60 | 90 | 0 | 90 | 30 | 100 | 100 | 95 | 100 | 100 | 100 | 5 | 35 | 90 | Wheat plant response rating (wheat [4]; [13]): 90; Nutsedge, Yellow plant response rating (nutsedge, yellow; [11]): 5; Nutsedge, Yellow plant response rating (nutsedge, yellow; [12]): 15; Plant response rating, Nutsedge, Yellow (nutsedge, yellow; 13 to 15 days): 30; Nutsedge, Yellow plant response rating (nutsedge, yellow; [13]): 65; Foxtail, Giant plant response rating (foxtail, giant [5]; [11]): 98; Foxtail, Giant plant response rating (foxtail, giant [5]; [12]): 100; Plant response rating, Foxtail, Giant (foxtail, giant [5]; 13 to 15 days): 100; Foxtail, Giant plant response rating (foxtail, giant [5]; [13]): 100; Morningglory plant response rating (0 to 100 scale) (morningglory): 100; Morningglory plant response rating (morningglory): 100; Plant response rating, Ducksalad (ducksalad): 100; Corn plant response rating (corn [6]; [11]): 5; Corn plant response rating (corn [6]; [12]): 55; Plant response rating, Corn (corn [6]; 13 to 15 days): 85; Corn plant response rating (corn [6]; [13]): 98; Galium plant response rating (galium; [11]): 98; Galium plant response rating (galium; [12]): 95; Plant response rating, Galium (galium; 13 to 15 days): 100; Galium plant response rating (galium; [13]): 100
CCc1cc(C(=O)NCC2CC2)nn1Cc1ccnc(C(F)(F)F)c1 [Compound 199] | 100 | 100 | 100 | 100 | 90 | 90 | 70 | 80 | 70 | 90 | 100 | 100 | 90 | 80 | 95 | 100 | 100 | 60 | 85 | 90 | Wheat plant response rating (wheat [4]; [13]): 90; Nutsedge, Yellow plant response rating (nutsedge, yellow; [11]): 30; Nutsedge, Yellow plant response rating (nutsedge, yellow; [12]): 45; Plant response rating, Nutsedge, Yellow (nutsedge, yellow; 13 to 15 days): 80; Nutsedge, Yellow plant response rating (nutsedge, yellow; [13]): 85; Foxtail, Giant plant response rating (foxtail, giant [5]; [11]): 100; Foxtail, Giant plant response rating (foxtail, giant [5]; [12]): 100; Plant response rating, Foxtail, Giant (foxtail, giant [5]; 13 to 15 days): 100; Foxtail, Giant plant response rating (foxtail, giant [5]; [13]): 100; Morningglory plant response rating (0 to 100 scale) (morningglory): 90; Morningglory plant response rating (morningglory): 100; Plant response rating, Ducksalad (ducksalad): 90; Corn plant response rating (corn [6]; [11]): 20; Corn plant response rating (corn [6]; [12]): 65; Plant response rating, Corn (corn [6]; 13 to 15 days): 75; Corn plant response rating (corn [6]; [13]): 90; Galium plant response rating (galium; [11]): 40; Galium plant response rating (galium; [12]): 100; Plant response rating, Galium (galium; 13 to 15 days): 100; Galium plant response rating (galium; [13]): 100
CCc1cc(C(=O)NC2CC2)nn1Cc1ccnc(OCC(F)(F)F)c1 [Compound 200] | 100 | 100 | 100 | 100 | 100 | 100 | 40 | 100 | 60 | 90 | 20 | 100 | 90 | 60 | 95 | 98 | 98 | 0 | 15 | 45 | Wheat plant response rating (wheat [4]; [13]): 75; Nutsedge, Yellow plant response rating (nutsedge, yellow; [11]): 20; Nutsedge, Yellow plant response rating (nutsedge, yellow; [12]): 25; Plant response rating, Nutsedge, Yellow (nutsedge, yellow; 13 to 15 days): 40; Nutsedge, Yellow plant response rating (nutsedge, yellow; [13]): 60; Foxtail, Giant plant response rating (foxtail, giant [5]; [11]): 75; Foxtail, Giant plant response rating (foxtail, giant [5]; [12]): 85; Plant response rating, Foxtail, Giant (foxtail, giant [5]; 13 to 15 days): 98; Foxtail, Giant plant response rating (foxtail, giant [5]; [13]): 100; Morningglory plant response rating (0 to 100 scale) (morningglory): 40; Morningglory plant response rating (morningglory): 100; Plant response rating, Ducksalad (ducksalad): 80; Corn plant response rating (corn [6]; [11]): 0; Corn plant response rating (corn [6]; [12]): 15; Plant response rating, Corn (corn [6]; 13 to 15 days): 35; Corn plant response rating (corn [6]; [13]): 80; Galium plant response rating (galium; [11]): 85; Galium plant response rating (galium; [12]): 100; Plant response rating, Galium (galium; 13 to 15 days): 100; Galium plant response rating (galium; [13]): 100
